Results published in PMC11801715, “Activating PKC-ε induces HIV expression with improved tolerability” (PLOS Pathogens, 2025).
Several values for one entry are separate records, joined by “and”; a condition that tells them apart may be missing. Equal entries are not always repeated.

Legend:
[1] = test system: platelet-rich plasma; test: Platelet aggregation assay (light transmittance aggregometry); format: cell-based, human
Protocol: Given that C-232A induced DIC in rats and monkeys, we tested whether C-232A could directly induce platelet activation and downstream aggregation. […] Adenosine diphosphate, a known platelet agonist, was used as a positive control (S7A Fig).
Aggregation of platelets was assessed using light transmittance aggregometry using standard methods.
(A) Assay principle for platelet aggregation assay.

[2] = test system: CD69 on CD4+ T cells; test: CD4+ T-cell activation flow cytometry (CD69); format: cell-based; settings: Homo sapiens; CD4+ T cells from ART-suppressed people with HIV; read-out: EC50, activation of CD69 expression
Protocol: Sixteen hours post treatment with PKC agonists, cellular activation of 100,000 CD4^+ T cells, taken from the above ex vivo HIV activation cultures, was assessed using flow cytometry. Cell surface expression of CD69 was measured on CD4^+ T cells using anti-human CD3 (UCHT1), CD4 (SK3) and CD69 (FN50) antibodies and standard flow staining methods. Stained cells were acquired on the Becton Dickinson (BD) LSR Fortessa II flow cytometer and results were analyzed using FlowJo software.

[3] = test system: EGR1 and CD69 mRNA in whole blood; test: EGR1 and CD69 mRNA levels in rat blood (QuantiGene); format: in vivo
Protocol: EGR1 and CD69 mRNA expression levels were measured in whole blood, processed using Affymetrix QuantiGene Sample Processing Kit (Thermo Fisher Scientific, catalog QS0111). Quantigene multiplex analysis was performed on 1:3 diluted blood using probes specific for rat EGR1 (Thermo Fisher Scientific, catalog nm_012551) and CD69 (catalog nm_134327), as per the kit’s instructions (Thermo Fisher Scientific, catalog QP-1014) and normalized to PPIB (catalog nm_022536) and β-actin (catalog nm_031144).

[4] = test system: Sprague Dawley rats; test: In vivo rat study: tolerability, clinical pathology, histopathology
Protocol: (§1) Wild-type male Sprague Dawley (Hsd: Sprague Dawley SD) rats (8–15 weeks old) were sourced from the Covance stock colony for conduct of in vivo studies at Covance Laboratories Inc. (Madison, Wisconsin, USA). Rats were administered a single dose of vehicle control (n = 3), or 0.1, 0.3, 1, or 3 mg/kg C-232A (n = 6), or 10 mg/kg C-233 by intravenous infusion over 30 minutes. Blood samples were collected through 24 hours postdose. Samples for PK measurement of C-232A concentration were processed to plasma and shipped to Gilead Sciences (Foster City, California, USA). Samples were analyzed at Covance Laboratories for hematology and clinical chemistry panels. At unscheduled necropsy (3 mg/kg C-232A), tissues were preserved in 10% neutral-buffered formalin, embedded in paraffin, mounted on slides, and stained with hematoxylin and eosin. Tissues were then evaluated independently (Experimental Pathology Laboratories, Inc).

[5] = molecular target: PKC-η (Homo sapiens, UniProt P24723); test: PKC isoform translocation in A549-tGFP cells; format: cell-based; set-up: host or cells: A549; settings: for EC50: A549-tGFP cells, 60 minutes; for ε selectivity, PKC-η: EC50 of PKC-η divided by EC50 of PKC-ε
PKC-η, sequence (P24723 whole entry, canonical isoform): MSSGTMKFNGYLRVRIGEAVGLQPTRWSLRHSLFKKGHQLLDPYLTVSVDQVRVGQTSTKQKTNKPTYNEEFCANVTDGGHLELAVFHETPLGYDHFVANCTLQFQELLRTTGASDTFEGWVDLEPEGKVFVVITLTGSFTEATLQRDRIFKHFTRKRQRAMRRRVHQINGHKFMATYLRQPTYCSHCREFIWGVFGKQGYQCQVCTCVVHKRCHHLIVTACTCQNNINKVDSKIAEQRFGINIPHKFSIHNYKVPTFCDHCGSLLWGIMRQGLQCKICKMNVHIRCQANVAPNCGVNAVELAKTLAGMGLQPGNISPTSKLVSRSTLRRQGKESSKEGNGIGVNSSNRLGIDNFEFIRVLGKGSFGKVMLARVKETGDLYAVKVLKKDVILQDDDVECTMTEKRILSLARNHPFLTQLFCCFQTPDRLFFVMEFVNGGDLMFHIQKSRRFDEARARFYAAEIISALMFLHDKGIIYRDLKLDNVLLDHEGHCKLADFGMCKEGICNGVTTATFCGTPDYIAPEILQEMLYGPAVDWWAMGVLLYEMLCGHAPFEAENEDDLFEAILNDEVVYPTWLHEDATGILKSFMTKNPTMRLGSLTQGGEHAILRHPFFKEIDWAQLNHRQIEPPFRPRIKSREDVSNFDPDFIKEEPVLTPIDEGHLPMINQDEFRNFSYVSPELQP
Protocol: (§2) A description of this effort is reported elsewhere.
(§3) Cellular translocation of PKC isoforms upon activation was determined in 8 A549 cell lines, each expressing a single PKC isoform fused to tGFP (PhenoVista Biosciences). Cells were plated in 384-well plates (80 μL/well) at 10^5 cells/mL in RPMI with 10% FBS and rested overnight. PKC agonist(s) were serially diluted at 1:3 steps in DMSO and added to the cells. After 60 minutes in an incubator at 37 °C, 5% CO2, cells were stained with Hoechst-33342 and fixed with 2% paraformaldehyde for 30 minutes at 4 °C. Cells were then stained with wheat germ agglutinin conjugated to AlexaFluor647 (WGA-647) for 10 minutes at 4 °C, washed to remove excess dye and imaged with Cellomics Array Scan (Thermo Fisher) at room temperature (RT). Images were analyzed using Cellomics automated image analysis algorithm. Plasma membrane translocation was quantified using the ratio between the average fluorescence in the areas at the cell edge defined by WGA-647 and the cytoplasm region.

[6] = molecular target: PKC-θ (Homo sapiens, UniProt Q04759); test: PKC isoform translocation in A549-tGFP cells; format: cell-based; set-up: host or cells: A549; settings: for EC50: A549-tGFP cells, 60 minutes; for ε selectivity, PKC-θ: EC50 of PKC-θ divided by EC50 of PKC-ε
PKC-θ, sequence (Q04759 whole entry, canonical isoform): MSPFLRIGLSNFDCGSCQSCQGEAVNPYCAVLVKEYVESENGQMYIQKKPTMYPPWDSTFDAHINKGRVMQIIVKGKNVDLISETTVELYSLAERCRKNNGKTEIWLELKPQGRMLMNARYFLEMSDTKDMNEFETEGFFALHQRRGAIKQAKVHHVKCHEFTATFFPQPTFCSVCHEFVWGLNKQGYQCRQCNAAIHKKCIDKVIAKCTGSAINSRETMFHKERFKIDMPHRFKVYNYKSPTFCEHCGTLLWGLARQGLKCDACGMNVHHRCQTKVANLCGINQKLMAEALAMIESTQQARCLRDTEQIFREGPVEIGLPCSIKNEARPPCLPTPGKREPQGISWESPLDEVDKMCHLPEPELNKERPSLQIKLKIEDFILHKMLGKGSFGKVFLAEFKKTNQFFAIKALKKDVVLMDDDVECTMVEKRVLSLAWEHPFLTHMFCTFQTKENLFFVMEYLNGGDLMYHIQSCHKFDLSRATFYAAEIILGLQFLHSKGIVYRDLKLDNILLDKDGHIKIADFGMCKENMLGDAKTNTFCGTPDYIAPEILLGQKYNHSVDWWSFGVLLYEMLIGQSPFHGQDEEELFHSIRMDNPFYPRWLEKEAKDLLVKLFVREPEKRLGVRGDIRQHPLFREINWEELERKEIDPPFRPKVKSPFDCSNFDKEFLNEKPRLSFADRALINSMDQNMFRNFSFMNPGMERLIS
Protocol: as §2, §3

[7] = molecular target: PKC-δ (Homo sapiens, UniProt Q05655); test: PKC isoform translocation in A549-tGFP cells; format: cell-based; set-up: host or cells: A549; settings: for EC50: A549-tGFP cells, 60 minutes, read-out: EC50 for PKC-δ translocation; for ε selectivity, PKC-δ: EC50 of PKC-δ divided by EC50 of PKC-ε
PKC-δ, sequence (Q05655 whole entry, canonical isoform): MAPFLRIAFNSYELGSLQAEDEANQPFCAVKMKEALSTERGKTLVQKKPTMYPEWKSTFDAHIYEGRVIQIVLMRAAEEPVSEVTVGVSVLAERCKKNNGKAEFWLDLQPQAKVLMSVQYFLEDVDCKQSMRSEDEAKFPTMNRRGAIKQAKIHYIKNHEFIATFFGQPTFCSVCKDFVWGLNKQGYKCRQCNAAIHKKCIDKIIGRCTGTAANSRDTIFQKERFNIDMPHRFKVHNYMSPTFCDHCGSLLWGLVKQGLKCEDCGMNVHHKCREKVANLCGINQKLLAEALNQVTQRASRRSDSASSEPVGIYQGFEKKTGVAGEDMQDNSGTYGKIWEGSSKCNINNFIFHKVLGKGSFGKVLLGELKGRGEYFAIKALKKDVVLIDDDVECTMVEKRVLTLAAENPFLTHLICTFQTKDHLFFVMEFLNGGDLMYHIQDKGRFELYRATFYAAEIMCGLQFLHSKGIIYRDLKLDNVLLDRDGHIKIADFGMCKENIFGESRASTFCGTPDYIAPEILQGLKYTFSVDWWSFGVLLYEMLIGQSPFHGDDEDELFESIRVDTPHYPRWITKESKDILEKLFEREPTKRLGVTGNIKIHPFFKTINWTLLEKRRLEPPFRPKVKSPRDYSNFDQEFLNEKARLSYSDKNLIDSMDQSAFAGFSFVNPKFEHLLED
Protocol: as §2, §3

[8] = test system: PBMCs; test: Cytokine induction in vitro in PBMC culture supernatants; format: cell-based, human; settings: 24 hours
Protocol: Culture supernatants were analyzed for induction of several cytokines as shown in S3 Table, using a 10-plex MSD (Meso Scale Discovery) assay following manufacturer’s instructions. MSD Workbench 4.0 software was used for data analysis and 4-parameter logistic curve fit model was utilized to determine values of experimental samples from standard curves. Values for each cytokine (pg/mL) for a given concentration was calculated as the geometric mean of all triplicate values combined from all 5 donors.

[9] = Plasma PK in rats; format: in vivo, rat; settings: slow IV infusion
Protocol: as §1
Rat and rhesus plasma samples (20 µL aliquot of each) were treated with 100 µL acetonitrile containing a generic internal small-molecule standard. […] The descriptive PK parameters were analyzed using noncompartmental analysis with Phoenix WinNonlin software (version 8.2, Certara USA, Inc.). The area under the plasma concentration–time curve (AUClast) values were calculated using the linear trapezoid method.

## Cc1ccc(C#Cc2ccc3oc(CC(C)(C)C(=O)OCC4(CO)CC(=CCC(CC(C)C)CC(C)C)C(=O)O4)cc3c2)cc1 (stereo not shown) [C-232A]
[1]
  relative potency for platelet aggregation: less potent than prostratin
[1]; dilution series, 20 minutes
  platelet aggregation: stimulated platelet aggregation
[2]
  EC50: 57 nM
[3]; 0.1-3 mg/kg
  EGR1 and CD69 transcription: dose-dependent increases in EGR1 and CD69 transcription
[4]; 1 mg/kg, single IV infusion
  rats euthanized due to severe clinical signs: 1 of the 6 and 1 of 6
[4]; 3 mg/kg
  histopathology: thrombi associated with congestion and hemorrhage in the lung and brain
[4]; 3 mg/kg, single IV infusion, n = 6
  outcome (moribund condition): euthanized within 6 hours postdose
[4]; 0.1 and 0.3 mg/kg, single IV infusion, 6 rats
  tolerability: well tolerated
[4]; higher doses
  circulating platelet counts: < 100,000 platelets/µL
  mean platelet volume: > 15 fL
[5]
  EC50: 100 nM
  ε selectivity, PKC-η: 2
[6]
  EC50: 176 nM and 180 nM
  ε selectivity, PKC-θ: 3
[7]
  EC50: 714 nM and 710 nM
  ε selectivity, PKC-δ: 12
[8]; 156 nM
  GM-CSF in PBMC culture supernatant: 40 pg/mL
  IFN-γ in PBMC culture supernatant: 202 pg/mL
  IL-1b in PBMC culture supernatant: 72 pg/mL
  IL-2 in PBMC culture supernatant: 14 pg/mL
  IL-4 in PBMC culture supernatant: 0.4 pg/mL
  IL-6 in PBMC culture supernatant: 84 pg/mL
  IL-8 in PBMC culture supernatant: 43,224 pg/mL
  IL-10 in PBMC culture supernatant: 4.9 pg/mL
  IL-12p70 in PBMC culture supernatant: 7 pg/mL
  TNF-α in PBMC culture supernatant: 883 pg/mL
[8]; 625 nM
  GM-CSF in PBMC culture supernatant: 71 pg/mL
  IFN-γ in PBMC culture supernatant: 172 pg/mL
  IL-1b in PBMC culture supernatant: 125 pg/mL
  IL-2 in PBMC culture supernatant: 17 pg/mL
  IL-4 in PBMC culture supernatant: 0.6 pg/mL
  IL-6 in PBMC culture supernatant: 100 pg/mL
  IL-8 in PBMC culture supernatant: 45,964 pg/mL
  IL-10 in PBMC culture supernatant: 3.6 pg/mL
  IL-12p70 in PBMC culture supernatant: 9 pg/mL
  TNF-α in PBMC culture supernatant: 1424 pg/mL
[9]; 0.1, 0.3, 1, and 3 mg/kg
  PK plasma profile: dose-dependent C-232A PK plasma profiles

## Cc1ccc(C#Cc2ccc(C(=O)OCC3(CO)Cc4c(-c5ccccc5)ccnc4O3)cc2)cc1 (stereo not shown) [C-233]
[1]
  relative potency for platelet aggregation: less potent than C-232A and prostratin
[1]; 20-minute stimulation
  platelet aggregation at concentrations below 10 μM: little or no aggregation
[2]
  EC50: 99 nM
[3]; 10 mg/kg
  EGR1 and CD69 mRNA induction versus C-232A (1 mg/kg): higher induction of EGR1 and CD69 mRNA levels
[4]; 10 mg/kg
  platelets and mean platelet volume: without any significant depletion of platelets or increased mean platelet volume
[4]; 10 mg/kg, single IV infusion
  adverse events: no adverse events were observed
[5]
  EC50: 1100 nM
  ε selectivity, PKC-η: 5
[6]
  EC50: 1500 nM
  ε selectivity, PKC-θ: 6
[7]
  EC50: 47000 nM
  ε selectivity, PKC-δ: 196
[8]; 156 nM
  GM-CSF in PBMC culture supernatant: 14 pg/mL
  IFN-γ in PBMC culture supernatant: 215 pg/mL
  IL-1b in PBMC culture supernatant: 42 pg/mL
  IL-2 in PBMC culture supernatant: 10 pg/mL
  IL-4 in PBMC culture supernatant: 0.3 pg/mL
  IL-6 in PBMC culture supernatant: 40 pg/mL
  IL-8 in PBMC culture supernatant: 36,739 pg/mL
  IL-10 in PBMC culture supernatant: 4 pg/mL
  IL-12p70 in PBMC culture supernatant: 5 pg/mL
  TNF-α in PBMC culture supernatant: 308 pg/mL
[8]; 625 nM
  GM-CSF in PBMC culture supernatant: 30 pg/mL
  IFN-γ in PBMC culture supernatant: 135 pg/mL
  IL-1b in PBMC culture supernatant: 60 pg/mL
  IL-2 in PBMC culture supernatant: 14 pg/mL
  IL-4 in PBMC culture supernatant: 0.6 pg/mL
  IL-6 in PBMC culture supernatant: 44 pg/mL
  IL-8 in PBMC culture supernatant: 45,465 pg/mL
  IL-10 in PBMC culture supernatant: 4 pg/mL
  IL-12p70 in PBMC culture supernatant: 9 pg/mL
  TNF-α in PBMC culture supernatant: 834 pg/mL
[9]; 1, 3, and 10 mg/kg, n = 3 male rats/group
  PK profile: Dose-dependent increases in the PK profile
